Common to all, as to type: cell-based
Test [1] has as its system U251. The experiment in a line: Cell growth inhibition test, U251. The note with it: Homo sapiens, U-251, 72 h; U251, Brain tumor Central Nerve System, 3 days, CellTiter-Glo. The procedure: (§1) A cell growth inhibition test was carried out by treating a cultured cancer cell line with a test compound for a given period and then counting the number of viable cells by CellTiter-Glo Luminescent Cell Viability Assay (manufactured by Promega Corp.).
(§2) The following cells were inoculated to a 384-well plate containing the compound prepared in advance at predetermined concentrations. […]
(§3) The cells thus inoculated were cultured at 37° C. for 3 days under 5% CO2. […] Then, luminescence intensity was measured using a plate reader.
(§4) The number of viable cells and luminescence intensity have been confirmed to correlate with each other. Therefore, the rate of cell growth was calculated according to the following expression: Rate of cell growth (T/C %) of a test compound-supplemented well=100×[(B−C)/(A−C)] wherein A represents the luminescence intensity (final culture date) of a test compound-free well; B represents the luminescence intensity (final culture date) of a test compound-containing well; and C represents the luminescence intensity (day of cell inoculation) of a well at the start of contact of the cells with the test compound.
(§5) T/C % at the concentration of each of the serially diluted test compounds was determined. […]

Test [2] has as its system A-431. The test can be described thus: Cell growth inhibition test, A-431. The note with it: Homo sapiens, 72 h; A-431, Skin cancer, 3 days, CellTiter-Glo. The protocol: as §1, §2, §3, §4, §5
On the technique in general: Cellular ATP, detected with luciferase, serves as a proxy for viable cell number.

Test [3] has as its system SK-OV-3. The experiment in a line: Cell growth inhibition test, SK-OV-3. The settings on record: Homo sapiens, 72 h; SK-OV-3, Ovary cancer, 3 days, CellTiter-Glo. The protocol: as §1, §2, §3, §4, §5
In test [4] the test system is CAPAN-2. The test can be described thus: Cell growth inhibition test, CAPAN-2. The note with it: Homo sapiens, 72 h; CAPAN-2, Pancreatic cancer, 3 days, CellTiter-Glo. The protocol:
as §1, §2, §3, §4, §5

For test [5], the system named is RKO. The test can be described thus: Cell growth inhibition test, RKO. The note with it: Homo sapiens, 72 h, Large intestine cancer, 3 days, CellTiter-Glo. The procedure:
as §1, §2, §3, §4, §5

Test [6] concerns BT-474. The experiment in a line: Cell growth inhibition test, BT-474. The note with it: Homo sapiens, 72 h; BT-474, Breast cancer, 3 days, CellTiter-Glo. The protocol:
as §1, §2, §3, §4, §5

Test [7] relates to T24. The test can be described thus: Cell growth inhibition test, T24. The note with it: Homo sapiens, T-24, 72 h; T24, Bladder cancer, 3 days, CellTiter-Glo. The protocol:
as §1, §2, §3, §4, §5

Test [8] relates to OVCAR-5. The experiment in a line: Cell growth inhibition test, OVCAR-5. The settings on record: Homo sapiens, 72 h; OVCAR-5, Ovary cancer, 3 days, CellTiter-Glo. The protocol: as §1, §2, §3, §4, §5
The subject of test [9] is COLO 205. The experiment in a line: Cell growth inhibition test, COLO 205. The note with it: Homo sapiens, 72 h; COLO 205, Large intestine cancer, 3 days, CellTiter-Glo. The procedure: as §1, §2, §3, §4, §5
The subject of test [10] is HCC1954. The test can be described thus: Cell growth inhibition test, HCC1954. The note with it: Homo sapiens, 72 h; HCC1954, Breast cancer, 3 days, CellTiter-Glo. The protocol: as §1, §2, §3, §4, §5
Test [11] concerns U-138 MG. The experiment in a line: Cell growth inhibition test, U-138 MG. The note with it: Homo sapiens, U138-MG, 72 h, Brain tumor Central Nerve System, 3 days, CellTiter-Glo. The protocol: as §1, §2, §3, §4, §5
For test [12], the system named is MV-4-11. The test can be described thus: Cell growth inhibition test, MV-4-11. The settings on record: Homo sapiens, MV4-11, 72 h; MV-4-11, Leukemia, 3 days, CellTiter-Glo. The procedure:
as §1, §2, §3, §4, §5

The subject of test [13] is 786-0. The test can be described thus: Cell growth inhibition test, 786-0. The note with it: Homo sapiens, 72 h; 786-0, Kidney cancer, 3 days, CellTiter-Glo. The protocol: as §1, §2, §3, §4, §5
Test [14] concerns PC-3. The test can be described thus: Cell growth inhibition test, PC-3. The note with it: Homo sapiens, 72 h; PC-3, Prostate cancer, 3 days, CellTiter-Glo. The protocol:
as §1, §2, §3, §4, §5

In test [15] the test system is HCT 116. The test can be described thus: Cell growth inhibition test, HCT 116. The note with it: Homo sapiens, 72 h; HCT 116, Large intestine cancer, 3 days, CellTiter-Glo. The protocol: as §1, §2, §3, §4, §5
In test [16] the test system is NCI-N87. The test can be described thus: Cell growth inhibition test, NCI-N87. The note with it: Homo sapiens, 72 h; NCI-N87, Stomach cancer, 3 days, CellTiter-Glo. The protocol: as §1, §2, §3, §4, §5
Test [17] concerns PANC-1. The test can be described thus: Cell growth inhibition test, PANC-1. The settings on record: Homo sapiens, 72 h; PANC-1, Pancreatic cancer, 3 days, CellTiter-Glo. The protocol: as §1, §2, §3, §4, §5
Test [18] relates to KARPAS 422. The test can be described thus: Cell growth inhibition test, KARPAS 422. The note with it: Homo sapiens, 72 h; KARPAS 422, Lymphoma, 3 days, CellTiter-Glo. The procedure: as §1, §2, §3, §4, §5
Test [19] concerns BxPC-3. The test can be described thus: Cell growth inhibition test, BxPC-3. The settings on record: Homo sapiens, 72 h; BxPC-3, Pancreatic cancer, 3 days, CellTiter-Glo. The procedure: as §1, §2, §3, §4, §5

What is called GI50 is the concentration that inhibits growth by half. Read a low GI50 as greater sensitivity of the cells.

For the compound `CCOc1ccc(Cl)cc1C(=O)NCC(C)(C)CC(=O)Nc1c([C@H](C)CN(C)C)n(C)n(-c2ccccc2)c1=O` [Example 68, 5-Chloro-N-[4-({5-[(1R)-2-(dimethylamino)-1-methylethyl]-1-methyl-3-oxo-2-phenyl-2,3-dihydro-1H-pyrazol-4-yl}amino)-2,2-dimethyl-4-oxobutyl]-2-ethoxybenzamide], the GI50 in test [1] was found to be 0.44 µM; in test [2], 0.21 µM; in test [3], 0.51 µM; in [4], 0.64 µM; in test [5] it was 0.24 µM; in test [6] it was 1.9 µM. In addition, the GI50 in test [7] was 0.65 µM; in [8], 0.54 µM; in test [9], 0.31 µM; in test [10], 0.34 µM; in test [11], 0.67 µM; in [12] it was 0.21 µM. Besides, the GI50 stood at 0.68 µM in [13]; 1.4 µM in test [14]; 0.18 µM in test [15]; 0.27 µM in test [16]; 0.9 µM in [17]; 0.2 µM in test [18]. In test [19], this compound displayed a 50% growth inhibitory concentration (GI50) of 0.22 µM.
On to `CCOc1ncc(Cl)cc1C(=O)NCC(C)(C)CC(=O)Nc1c([C@H](C)CN(C)C)n(C)n(-c2ccccc2)c1=O` [Example 73, 5-Chloro-N-[4-({5-[(1R)-2-(dimethylamino)-1-methylethyl]-1-methyl-3-oxo-2-phenyl-2,3-dihydro-1H-pyrazol-4-yl}amino)-2,2-dimethyl-4-oxobutyl]-2-ethoxypyridine-3-carboxamide], for which the GI50 in [1] stood at 0.98 µM; in [2], 0.54 µM; in test [3], 0.98 µM; in test [4] it was 0.98 µM; in [5], 0.57 µM; in [6], 5 µM. The GI50 in test [7] was determined as 0.85 µM; in test [8], 0.75 µM; in test [9], 0.85 µM; in test [10] it was 0.92 µM; in test [11], 1 µM; in test [12], 0.49 µM. In addition, the GI50 in test [13] worked out at 0.92 µM; in test [14] it was 1.5 µM; in test [15], 0.46 µM; in [16] it was 0.66 µM; in test [17] it was 2 µM; in test [18], 0.35 µM. In [19], halving of growth (GI50) required 0.44 µM.
With `CCOc1cc(F)c(Cl)cc1C(=O)NCC(C)(C)CC(=O)Nc1c(COC)n(C)n(-c2ccccc2)c1=O` [Example 113, 5-Chloro-2-ethoxy-4-fluoro-N-(4-{[5-(methoxymethyl)-1-methyl-3-oxo-2-phenyl-2,3-dihydro-1H-pyrazol-4-yl]amino}-2,2-dimethyl-4-oxobutyl)benzamide], the GI50 in test [1] came out at 0.8 µM; in test [2] it was 0.39 µM; in test [3], 0.7 µM; in test [4], 0.75 µM; in test [5] it was 0.31 µM; in [6], 25 µM. Besides, the GI50 was determined as 0.49 µM in [7]; 0.57 µM in test [8]; 0.72 µM in test [9]; 0.72 µM in [10]; 1 µM in test [11]; 0.4 µM in test [12]. Moreover, the GI50 in test [13] was determined as 0.32 µM; in [14], 1.4 µM; in test [15], 0.23 µM; in test [16], 0.53 µM; in test [17], 1.2 µM; in test [18], 0.45 µM. In test [19], this compound returned a GI50 of 0.37 µM.

(Values after US20170107207A1, “AMINOPYRAZOLONE DERIVATIVE” (DAIICHI SANKYO COMPANY, LIMITED, priority 2014, published 2017).)
